ChEMBL document CHEMBL1629594, “Identification of a novel trimethoprim resistance gene, dfrK, in a methicillin-resistant Staphylococcus aureus ST398 strain and its physical linkage to the tetracycline resistance gene tet(L)” (2009)
In brackets after ≈: the same amount, converted by molar mass.

Tested on: Escherichia coli
Assay: Antibacterial activity against Escherichia coli JM109 expressing Bgl2

**Q.** Which MIC does the source give for `COc1cc(Cc2cnc(N)nc2N)cc(OC)c1OC` [TRIMETHOPRIM] here?
**A.** ≥ 512 µg/mL

Tested on: Staphylococcus aureus
Assay: Antibacterial activity against methicillin-resistant Staphylococcus aureus ST398
Format: functional

**Q.** `CC1(C)S[C@@H]2[C@H](NC(=O)[C@H](N)c3ccccc3)C(=O)N2[C@H]1C(=O)O` [AMPICILLIN] was tested. Which MIC did it give?
**A.** 8 µg/mL (≈ 22.9 µM)

**Q.** With `Cc1onc(-c2ccccc2)c1C(=O)N[C@@H]1C(=O)N2[C@@H]1SC(C)(C)[C@@H]2C(=O)O` [OXACILLIN] as the compound, how does the MIC read?
**A.** 8 µg/mL (≈ 19.9 µM)

**Q.** With `CC1(C)S[C@@H]2[C@H](NC(=O)Cc3ccccc3)C(=O)N2[C@H]1C(=O)O` [PENICILLIN G] as the compound, how does the MIC read?
**A.** 8 µg/mL (≈ 23.9 µM)

**Q.** For `CN(C)[C@@H]1C(O)=C(C(N)=O)C(=O)[C@@]2(O)C(O)=C3C(=O)c4c(O)cccc4[C@@](C)(O)[C@H]3C[C@@H]12` [TETRACYCLINE], which MIC is on record?
**A.** 64 µg/mL (≈ 144 µM)

**Q.** How did the MIC turn out when `COc1cc(Cc2cnc(N)nc2N)cc(OC)c1OC` [TRIMETHOPRIM] was run?
**A.** > 256 µg/mL
